According to patent US20230138327A1, “COMPOSITIONS AND METHODS CONTAINING REDUCED NICOTINAMIDE RIBOSIDE FOR PREVENTION AND TREATMENT OF PANCREATIC DISEASES AND CONDITIONS” (SOCIETE DES PRODUITS NESTLE S.A., priority 2020, published 2023):
Counter-ions that a name gives are not always drawn.

Legend:
AML12 cells = assay: Pathway of NRH-induced NAD+ synthesis: intracellular metabolites and pathway inhibitors; assay type: cell-based; details: for Effect of adenosine kinase inhibitor on NRH-mediated NAD+ synthesis: AML12 cells, 5-IT 10 mM for 1 hour prior to NRH, NAD measured 1 hour later
Protocol: FIG. 4. NRH leads to NAD+ biosynthesis through an adenosine kinase dependent path. AML12 cells were treated with an adenosine kinase inhibitor (5-IT; […]) for 1 hour prior to NRH treatment at the doses indicated. Then, 1 hour later, acidic extracts were obtained to measure NAD levels. All values in the figure are expressed as mean+/−SEM of 3 independent experiments. * indicates statistical difference at p<0.05 vs. the respective vehicle treated group.
(§1) Levels of NRH and other NAD-related metabolites in biological samples were obtained by using a cold liquid-liquid extraction using a mixture of methanol:water:chloroform in 5:3:5 (v/v), from which the polar phase was recovered for hydrophilic interaction ultra-high performance liquid chromatography mass spectrometry (UHPLC-MS) analysis. The UHPLC consisted of a binary pump, a cooled autosampler, and a column oven (DIONEX Ultimate 3000 UHPLC+ Focused, Thermo Scientific), connected to a triple quadrupole spectrometer (TSQ Vantage, Thermo Scientific) equipped with a heated electrospray ionisation (H-ESI) source. Of each sample, 2 μL were injected into the analytical column (2.1 mm×150 mm, 5 μm pore size, 200 Å HILICON iHILIC®-Fusion(P)), guarded by a pre-column (2.1 mm×20 mm, 200 Å HILICON iHILIC®-Fusion(P) Guard Kit) operating at 35° C. The mobile phase (10 mM ammonium acetate at pH 9, A, and acetonitrile, B) was pumped at 0.25 mL/min flow rate over a linear gradient of decreasing organic solvent (0.5-16 min, 90-25% B), followed by re-equilibration for a total run time of 30 min. The MS operated in positive mode at 3500 V with multiple reaction monitoring (MRM). The software Xcalibur v4.1.31.9 (Thermo Scientific) was used for instrument control, data acquisition and processing. Retention time and mass detection was confirmed by authentic standards.
A path in which NRH would be converted to NMNH, then to NADH and this would be finally oxidized to NAD+.
In order to understand the exact path by which NRH synthesizes NAD+, we initially evaluated whether NRH, could be transported into the cell by equilibrative nucleoside transporters (ENTs).
(§2) The action of NRH was also NAMPT-independent, based on experiments using FK866, a NAMPT inhibitor. If NRH led to NAD+ synthesis via the formation of NMNH, this hypothetical path would require the phosphorylation of NRH into NMNH. Given the essential and rate-limiting role of NRK1 in NR phosphorylation, we wondered whether the ability of NRH to boost NAD+ levels was NRK1 dependent. To answer this question, we evaluated NRH action in primary hepatocytes from either control or NRK1 knockout (NRK1KO) mice. […] Further, they rule out the possibility that NRH-induced NAD+ […] is driven by NRH oxidation into NR.
Considering the molecular structure of NRH, we reasoned that an alternative nucleoside kinase could be responsible for the phosphorylation of NRH. […] The role of AK in NRH-mediated NAD+ synthesis was confirmed using a second, structurally different, AK inhibitor, ABT-702. Metabolomic analyses further confirmed that upon inhibition of AK, the generation of NMNH, NADH and NAD+ was fully blunted, even if NRH was effectively entering the cell.
As a follow-up step, NMNAT enzymes could catalyze the transition from NMNH to NADH. […] Yet, part of the NRH action remained after gallotannin treatment when NRH was used at maximal doses.

[1] = Circulating NRH, NR and NAM in mice after intraperitoneal injection; assay type: in vivo; details: mice, IP 500 mg/kg
Source text: as §1
(§3) The above results prompted us to test whether NRH could act as an effective NAD+ precursor in vivo. For this, we first intraperitoneally (IP) injected mice with either NR or NRH (500 mg/kg). […] Importantly, NRH was detectable in circulation after IP injection.

mice = assay: Tissue NAD+ levels in mice after intraperitoneal injection; assay type: in vivo; details: IP 500 mg/kg, after 1 h
Protocol: as §3

[2] = Stability of NRH or NR spiked in isolated mouse plasma; assay type: in vitro ADME; details: 2 h of incubation
Source text: as §1

[3] = system: primary hepatocytes from control or NRK1 knockout (NRK1KO) mice; assay: NAD+ levels in primary hepatocytes from control or NRK1 knockout mice; assay type: cell-based; details: 1 hour of treatment
Source text: as §2

[4] = Plasma NRH, NR and NAM in mice after oral administration; assay type: in vivo; details: mouse, in vivo, po
Source text: as §1
Oral administration of NRH led to very similar results to those observed after IP administration. […] NRH was detectable in plasma 1 h after oral administration. In contrast, NR levels were undetectable at 1 h after NR administration.

In the case of `Nc1ncnc2c1c(I)cn2[C@@H]1O[C@H](CO)[C@@H](O)[C@H]1O` [5-IT, 5-iodotubercidin], the “Effect of adenosine kinase inhibitor on NRH-mediated NAD+ synthesis” value (AML12 cells) is reported as “fully ablated the action of NRH” and the “Formation of NR and NMN after NRH treatment under AK inhibitor” value (AML12 cells; metabolomic analyses) is reported as “prevented the formation of NR and NMN”.
For `Nc1ncnc2nc(-c3ccc(N4CCOCC4)nc3)cc(-c3cccc(Br)c3)c12` [ABT-702], the “Effect of adenosine kinase inhibitor on NRH-mediated NAD+ synthesis” value (AML12 cells) was “confirmed”.
In the case of `NC(=O)c1ccc[n+]([C@@H]2O[C@H](CO)[C@H](O)C2O)c1` (stereo partly drawn) [NR, 1-b-D-ribofuranosyl-3-pyridinecarboxamide salt, reference compound], the “NAM levels in circulation” value [1] is reported as “highly increased”, the “NAD+ levels in kidney” value (mice) is reported as “increased NAD+ levels” and the “NAD+ levels in liver” value (mice) is reported as “increased NAD+ levels”. The “NAD+ levels in muscle” value (mice) was “increased NAD+ levels”, the “Compound levels in isolated mouse plasma” value [2] was “decayed” and the “Generation of NAM in isolated mouse plasma” value [2] was “increase in NAM”. For the same compound, the “NAD+ levels in NRK1KO derived primary hepatocytes” value [3] was “failed to increase NAD+ levels”, the “Circulating NAM after NR treatment relative to NRH treatment” value ([4]; C57BL/6NTac, 1 h) was about 4 fold and the “Administered compound in plasma” value [4] was “undetectable”. For the same compound, the “Circulating NAM” value [4] was “large increases” and the “Intracellular detection of NRH and NMNH” value (AML12 cells; 5 minutes after treatment) was “not”.
For `O=C(OC[C@H]1O[C@@H](OC(=O)c2cc(O)c(O)c(OC(=O)c3cc(O)c(O)c(O)c3)c2)[C@H](OC(=O)c2cc(O)c(O)c(OC(=O)c3cc(O)c(O)c(O)c3)c2)[C@@H](OC(=O)c2cc(O)c(O)c(OC(=O)c3cc(O)c(O)c(O)c3)c2)[C@@H]1OC(=O)c1cc(O)c(O)c(OC(=O)c2cc(O)c(O)c(O)c2)c1)c1cc(O)c(O)c(OC(=O)c2cc(O)c(O)c(O)c2)c1` [gallotannin], the “Effect of NMNAT inhibitor on NAD+ synthesis after NRH treatment” value (AML12 cells; NRH at maximal doses (0.5 mM), part of NRH action remained) was “largely compromised NAD+ synthesis” and the “Effect of NMNAT inhibitor on NRH action” value (AML12 cells; NRH at submaximal doses) was “totally blocked”.
